Where two headings read alike, the source gives them in different places.

Test in all cases: Kinase panel profiling at 1 µmol/L (MSA or IMAP), percentage inhibition
Assay type in all cases: biochemical

The target of assay [1] is panel of 255 wild-type kinases (Homo sapiens, UniProt P04629). To be noted: read-out: %-inhibition at 1 µmol/L, TRKA.
Assay [2] deals with T1, panel of 255 wild-type kinases (Homo sapiens, UniProt P29322).
T1 sequence (P29322 28-1005): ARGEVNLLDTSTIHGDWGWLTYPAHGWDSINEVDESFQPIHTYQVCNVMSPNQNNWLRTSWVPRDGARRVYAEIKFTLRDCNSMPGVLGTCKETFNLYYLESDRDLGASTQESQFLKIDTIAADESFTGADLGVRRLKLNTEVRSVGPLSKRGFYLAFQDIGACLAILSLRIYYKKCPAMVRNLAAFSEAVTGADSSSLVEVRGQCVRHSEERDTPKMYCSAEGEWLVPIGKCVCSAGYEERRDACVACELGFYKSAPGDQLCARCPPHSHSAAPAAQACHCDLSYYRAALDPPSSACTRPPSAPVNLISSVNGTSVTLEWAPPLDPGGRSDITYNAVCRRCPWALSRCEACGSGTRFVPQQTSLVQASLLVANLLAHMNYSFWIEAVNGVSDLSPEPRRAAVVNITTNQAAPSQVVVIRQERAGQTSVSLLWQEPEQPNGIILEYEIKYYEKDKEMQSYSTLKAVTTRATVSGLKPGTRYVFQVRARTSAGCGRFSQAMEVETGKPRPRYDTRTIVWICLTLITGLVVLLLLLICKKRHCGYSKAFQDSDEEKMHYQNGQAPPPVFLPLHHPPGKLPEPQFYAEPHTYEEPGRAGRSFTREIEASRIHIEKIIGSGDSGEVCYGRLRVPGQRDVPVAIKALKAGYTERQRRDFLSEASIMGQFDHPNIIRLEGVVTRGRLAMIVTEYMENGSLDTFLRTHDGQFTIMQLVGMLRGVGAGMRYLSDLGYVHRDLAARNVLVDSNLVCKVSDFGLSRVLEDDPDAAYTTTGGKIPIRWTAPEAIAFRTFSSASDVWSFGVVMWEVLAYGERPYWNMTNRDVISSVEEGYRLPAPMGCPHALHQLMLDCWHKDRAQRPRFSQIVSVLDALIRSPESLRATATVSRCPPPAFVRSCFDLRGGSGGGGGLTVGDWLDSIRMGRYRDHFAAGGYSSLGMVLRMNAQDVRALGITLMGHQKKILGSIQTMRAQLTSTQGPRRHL
To be noted: read-out: %-inhibition at 1 µmol/L, EPHA8.

Assay [3] concerns the target panel of 255 wild-type kinases (Homo sapiens, UniProt P29376). To be noted: read-out: %-inhibition at 1 µmol/L, LTK.
Assay [4] concerns the target T2, panel of 255 wild-type kinases (Homo sapiens, UniProt P41743).
T2 sequence (P41743 1-596): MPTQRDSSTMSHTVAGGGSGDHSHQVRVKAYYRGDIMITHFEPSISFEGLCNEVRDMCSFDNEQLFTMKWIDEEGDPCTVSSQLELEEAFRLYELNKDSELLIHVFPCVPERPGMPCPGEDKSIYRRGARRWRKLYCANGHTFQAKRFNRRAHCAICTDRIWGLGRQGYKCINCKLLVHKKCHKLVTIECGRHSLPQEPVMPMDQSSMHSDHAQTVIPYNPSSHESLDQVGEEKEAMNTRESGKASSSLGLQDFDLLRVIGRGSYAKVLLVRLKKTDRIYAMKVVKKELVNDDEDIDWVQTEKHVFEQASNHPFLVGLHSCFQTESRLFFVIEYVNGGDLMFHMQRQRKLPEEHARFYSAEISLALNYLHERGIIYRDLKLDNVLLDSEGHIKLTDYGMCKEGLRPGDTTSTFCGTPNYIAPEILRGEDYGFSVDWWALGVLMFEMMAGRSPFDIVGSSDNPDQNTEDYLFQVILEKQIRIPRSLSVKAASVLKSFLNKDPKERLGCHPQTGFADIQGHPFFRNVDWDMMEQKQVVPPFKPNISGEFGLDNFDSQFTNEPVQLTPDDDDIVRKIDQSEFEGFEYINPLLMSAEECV
To be noted: read-out: %-inhibition at 1 µmol/L, PKCι.

The target in assay [5] is T3, panel of 255 wild-type kinases (Homo sapiens, UniProt P52333).
T3 sequence (P52333 1-1124): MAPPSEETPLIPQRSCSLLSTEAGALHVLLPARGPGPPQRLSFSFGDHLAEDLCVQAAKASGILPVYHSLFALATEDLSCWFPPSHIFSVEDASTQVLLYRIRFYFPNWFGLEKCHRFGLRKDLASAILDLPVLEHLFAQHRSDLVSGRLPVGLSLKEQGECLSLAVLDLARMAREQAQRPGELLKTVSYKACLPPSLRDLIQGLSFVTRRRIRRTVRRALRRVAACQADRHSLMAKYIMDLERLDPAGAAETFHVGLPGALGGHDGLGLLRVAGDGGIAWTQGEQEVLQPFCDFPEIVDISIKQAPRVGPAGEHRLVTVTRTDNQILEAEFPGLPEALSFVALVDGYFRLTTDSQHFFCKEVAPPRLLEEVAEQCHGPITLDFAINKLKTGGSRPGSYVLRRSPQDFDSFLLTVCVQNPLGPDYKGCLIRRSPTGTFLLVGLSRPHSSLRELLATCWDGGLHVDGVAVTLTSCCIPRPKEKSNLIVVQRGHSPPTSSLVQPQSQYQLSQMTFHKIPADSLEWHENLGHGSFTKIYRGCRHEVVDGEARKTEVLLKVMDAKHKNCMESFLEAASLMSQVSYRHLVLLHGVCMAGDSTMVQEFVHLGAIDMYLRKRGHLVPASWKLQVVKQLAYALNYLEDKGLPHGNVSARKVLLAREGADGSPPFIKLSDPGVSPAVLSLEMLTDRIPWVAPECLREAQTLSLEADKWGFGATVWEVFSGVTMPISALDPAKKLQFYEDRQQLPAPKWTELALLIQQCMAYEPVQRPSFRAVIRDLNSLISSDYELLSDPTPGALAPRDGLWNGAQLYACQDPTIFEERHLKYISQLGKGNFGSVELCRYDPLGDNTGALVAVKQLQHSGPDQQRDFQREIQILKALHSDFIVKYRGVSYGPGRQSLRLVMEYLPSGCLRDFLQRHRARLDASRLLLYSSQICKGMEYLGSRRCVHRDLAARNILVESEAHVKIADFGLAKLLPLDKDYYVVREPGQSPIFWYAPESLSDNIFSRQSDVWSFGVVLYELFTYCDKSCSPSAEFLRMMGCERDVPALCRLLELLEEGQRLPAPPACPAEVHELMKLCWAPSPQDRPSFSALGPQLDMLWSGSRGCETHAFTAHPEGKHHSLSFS
The following applies: read-out: %-inhibition at 1 µmol/L, JAK3.

Where [6] appears, read: kinase TRKA, 1 µmol/L single concentration.
[7] abbreviates: kinase EPHA8, 1 µmol/L single concentration.
The mark [8] stands for this setting: kinase LTK, 1 µmol/L single concentration.
Setting [9] is: kinase PKCι, 1 µmol/L single concentration.
Where [10] appears, read: kinase JAK3, 1 µmol/L single concentration.

In the case of `Cn1cc(-c2cc3c(N4CCN(c5ncc([C@@](C)(N)c6ccc(F)cc6)cn5)CC4)ncnn3c2)cn1` [avapritinib], the inhibition at 1 µM in assay [1] (setting [6]) was 65%; in assay [2] (setting [7]), 73%; in assay [3] (setting [8]), 51%; in assay [4] (setting [9]), 0.376%; in assay [5] (setting [10]), 64%.

As for `C[C@H](Nc1ncnc2nc[nH]c12)c1cc2cccc(Cl)c2c(=O)n1-c1ccccc1` [duvelisib], the inhibition at 1 µM was 9% in assay [1] (setting [6]); -7% in assay [2] (setting [7]); 0.216% in assay [3] (setting [8]); 18% in assay [4] (setting [9]); 3% in assay [5] (setting [10]).

`COc1cc2ncnc(Nc3ccc(F)c(Cl)c3)c2cc1NC(=O)/C=C/CN1CCCCC1` [dacomitinib]: the inhibition at 1 µM was determined as 6% in assay [1] (setting [6]); 59% in assay [2] (setting [7]); 21% in assay [3] (setting [8]); 31% in assay [4] (setting [9]); 28% in assay [5] (setting [10]).

As to `CCN1CCN(c2ccc(Nc3cc(N(C)C(=O)Nc4c(Cl)c(OC)cc(OC)c4Cl)ncn3)cc2)CC1` [infigratinib], the inhibition at 1 µM in assay [1] (setting [6]) was 27%; in assay [2] (setting [7]), -10%; in assay [3] (setting [8]) it was 60%; in assay [4] (setting [9]), -10%; in assay [5] (setting [10]) it was 7%.

As for `Cn1cnc2c(F)c(Nc3ccc(Br)cc3Cl)c(C(=O)NOCCO)cc21` [selumetinib], the inhibition at 1 µM in assay [1] (setting [6]) was 18%; in assay [2] (setting [7]), -12%; in assay [3] (setting [8]) it was 53%; in assay [4] (setting [9]) it was -6.5%; in assay [5] (setting [10]), 6%.

In the case of `CNC(=O)c1ccc(-c2cnc3ncc(Cc4ccc5ncccc5c4)n3n2)cc1F` [capmatinib], the inhibition at 1 µM in assay [1] is 39%; in assay [2] it was -14%; in assay [3], 49%; in assay [4], -10%; in assay [5] it was 3.32%.

Turning to `COC(=O)N[C@@H](C)CNc1nccc(-c2cn(C(C)C)nc2-c2cc(Cl)cc(NS(C)(=O)=O)c2F)n1` [encorafenib], the inhibition at 1 µM in assay [1] (setting [6]) is -2.7%; in assay [2] (setting [7]) it was 16%; in assay [3] (setting [8]) it was 0.605%; in assay [4] (setting [9]) it was -1.18%; in assay [5] (setting [10]) it was 2.28%.

Regarding `Cc1cc(Nc2ncnc3ccc(NC4=NC(C)(C)CO4)cc23)ccc1Oc1ccn2ncnc2c1` [tucatinib], the inhibition at 1 µM in assay [1] (setting [6]) is 20%; in assay [2] (setting [7]) it was -14%; in assay [3] (setting [8]), 49%; in assay [4] (setting [9]) it was -2.24%; in assay [5] (setting [10]) it was 4.65%.

Take `C=CC(=O)N1CCC([C@@H]2CCNc3c(C(N)=O)c(-c4ccc(Oc5ccccc5)cc4)nn32)CC1` [zanubrutinib]: the inhibition at 1 µM is 9% in assay [1] (setting [6]); -8% in assay [2] (setting [7]); 0.209% in assay [3] (setting [8]); -8% in assay [4] (setting [9]); 10% in assay [5].

For `Cn1cnc2c(F)c(Nc3ccc(Br)cc3F)c(C(=O)NOCCO)cc21` [binimetinib], the inhibition at 1 µM in assay [1] (setting [6]) is -5%; in assay [2] (setting [7]), 2.68%; in assay [3] (setting [8]), 0.411%; in assay [4] (setting [9]) it was 15%; in assay [5] (setting [10]), -0.365%.

On to `COc1ccc(CN2C3CC2CN(c2ccc(-c4cc(OCC(C)(C)O)cn5ncc(C#N)c45)cn2)C3)cn1` [selpercatinib], for which the inhibition at 1 µM is 33% in assay [1] (setting [6]); 45% in assay [2] (setting [7]); -3% in assay [3] (setting [8]); -0.803% in assay [4] (setting [9]); 27% in assay [5] (setting [10]).

In the case of `CCN1C(=O)N(c2c(F)c(OC)cc(OC)c2F)Cc2cnc3[nH]c(CN4CCOCC4)cc3c21` [pemigatinib], the inhibition at 1 µM in assay [1] (setting [6]) was 14%; in assay [2] (setting [7]), -6%; in assay [3] (setting [8]), 1.66%; in assay [4] (setting [9]) it was -4%; in assay [5] (setting [10]) it was 0.2%.

Regarding `CN1CCN(c2ccc(C(=O)Nc3n[nH]c4ccc(Cc5cc(F)cc(F)c5)cc34)c(NC3CCOCC3)c2)CC1` [entrectinib], the inhibition at 1 µM was found to be 55% in assay [2] (setting [7]), 100% in assay [3] (setting [8]), 34% in assay [4] (setting [9]) and 97% in assay [5] (setting [10]).

With `CO[C@]1(C(=O)N[C@@H](C)c2ccc(-n3cc(F)cn3)nc2)CC[C@H](c2nc(C)cc(Nc3cc(C)[nH]n3)n2)CC1` [pralsetinib], the inhibition at 1 µM is 96% in assay [1] (setting [6]); 84% in assay [2] (setting [7]); 55% in assay [3] (setting [8]); -7.5% in assay [4] (setting [9]); 96% in assay [5] (setting [10]).

For `C[C@H]1Oc2cc(cnc2N)-c2c(nn(C)c2C#N)CN(C)C(=O)c2ccc(F)cc21` [lorlatinib], the inhibition at 1 µM was determined as 6% in assay [2] (setting [7]), 19% in assay [4] (setting [9]) and 6.62% in assay [5] (setting [10]).

As to `CCn1c(=O)c(-c2cc(NC(=O)Nc3ccccc3)c(F)cc2Br)cc2cnc(NC)cc21` [ripretinib], the inhibition at 1 µM in assay [1] (setting [6]) was 42%; in assay [2] (setting [7]) it was 101%; in assay [3] (setting [8]) it was 0.637%; in assay [4] (setting [9]) it was 21%; in assay [5] (setting [10]) it was 7%.

For the origin of these results see paper PMC9516332 (Frontiers in Oncology, 2022).
